Source: PMC9898036, “VIP152 is a selective CDK9 inhibitor with pre-clinical in vitro and in vivo efficacy in chronic lymphocytic leukemia” (Leukemia, 2022)

What was measured:
Experiment in all cases: DiscoverX KINOMEscan kinase profiling (468 assays)
Type in all cases: binding
[1] = target: human kinome (Homo sapiens, UniProt O00444); conditions: read-out: Percent Control
How it was run: (§1)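 DNA-tagged kinases competed for immobilized biotinylated ligands on streptavidin magnetic beads, with bound kinase quantified by qPCR. VIP152 in DMSO was tested against a DMSO control.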

[2] = target: human kinome (Homo sapiens, UniProt O14757); conditions: CHEK1; 100 nM; read-out: Percent Control
How it was run: as §1

[3] = target: human kinome (Homo sapiens, UniProt O43293); conditions: DAPK3; 100 nM; read-out: Percent Control
How it was run: as §1

[4] = target: human kinome (Homo sapiens, UniProt O75385); conditions: kinase ULK1 (Entrez ULK1); compound concentration 1000 nM; read-out: Percent Control
How it was run: as §1

[5] = target: human kinome (Homo sapiens, UniProt O75460); conditions: ERN1; 100 nM; read-out: Percent Control
How it was run: as §1

[6] = target: human kinome (Homo sapiens, UniProt P06213); conditions: INSR; 100 nM; read-out: Percent Control
How it was run: as §1

[7] = target: human kinome (Homo sapiens, UniProt P09619); conditions: read-out: Percent Control
How it was run: as §1

[8] = target: human kinome (Homo sapiens, UniProt P0C1S8); conditions: kinase WEE2 (Entrez WEE2); compound concentration 1000 nM; read-out: Percent Control
How it was run: as §1

[9] = target: human kinome (Homo sapiens, UniProt P21127); conditions: CDC2L1 (Entrez CDK11B); 100 nM; read-out: Percent Control
How it was run: as §1

[10] = target: human kinome (Homo sapiens, UniProt P21709); conditions: EPHA1; 100 nM; read-out: Percent Control
How it was run: as §1

[11] = target: human kinome (Homo sapiens, UniProt P30530); conditions: AXL; 100 nM; read-out: Percent Control
How it was run: as §1

[12] = target: human kinome (Homo sapiens, UniProt P31749); conditions: AKT1; 100 nM; read-out: Percent Control
How it was run: as §1

[13] = target: human kinome (Homo sapiens, UniProt P32298); conditions: GRK4; 100 nM; read-out: Percent Control
How it was run: as §1

[14] = target: human kinome (Homo sapiens, UniProt P41743); conditions: read-out: Percent Control
How it was run: as §1

[15] = target: human kinome (Homo sapiens, UniProt P42336); conditions: read-out: Percent Control
How it was run: as §1

[16] = target: human kinome (Homo sapiens, UniProt P42336, M1043I); conditions: read-out: Percent Control
How it was run: as §1

[17] = target: human kinome (Homo sapiens, UniProt P45984); conditions: JNK2 (Entrez MAPK9); 100 nM; read-out: Percent Control
How it was run: as §1

[18] = target: human kinome (Homo sapiens, UniProt Q00532); conditions: CDKL1; 100 nM; read-out: Percent Control
How it was run: as §1

[19] = target: human kinome (Homo sapiens, UniProt Q08881); conditions: ITK; 100 nM; read-out: Percent Control
How it was run: as §1

[20] = target: human kinome (Homo sapiens, UniProt Q14004); conditions: read-out: Percent Control
How it was run: as §1

[21] = target: human kinome (Homo sapiens, UniProt Q86UE8); conditions: kinase TLK2 (Entrez TLK2); compound concentration 1000 nM; read-out: Percent Control
How it was run: as §1

[22] = target: human kinome (Homo sapiens, UniProt Q8IWQ3); conditions: BRSK2; 100 nM; read-out: Percent Control
How it was run: as §1

[23] = target: human kinome (Homo sapiens, UniProt Q8NE63); conditions: HIPK4; 100 nM; read-out: Percent Control
How it was run: as §1

[24] = target: human kinome (Homo sapiens, UniProt Q8TD08); conditions: ERK8 (Entrez MAPK15); 100 nM; read-out: Percent Control
How it was run: as §1

[25] = target: human kinome (Homo sapiens, UniProt Q92918); conditions: HPK1 (Entrez MAP4K1); 100 nM; read-out: Percent Control
How it was run: as §1

[26] = target: human kinome (Homo sapiens, UniProt Q96GD4); conditions: AURKB; 100 nM; read-out: Percent Control
How it was run: as §1

[27] = target: human kinome (Homo sapiens, UniProt Q96J92); conditions: kinase WNK4 (Entrez WNK4); compound concentration 1000 nM; read-out: Percent Control
How it was run: as §1

[28] = target: human kinome (Homo sapiens, UniProt Q96L34); conditions: MARK4; 100 nM; read-out: Percent Control
How it was run: as §1

[29] = target: human kinome (Homo sapiens, UniProt Q9HC98); conditions: read-out: Percent Control
How it was run: as §1

[30] = target: human kinome (Homo sapiens, UniProt Q9NRP7); conditions: kinase STK36 (Entrez STK36); compound concentration 1000 nM; read-out: Percent Control
How it was run: as §1

[31] = target: human kinome (Homo sapiens, UniProt Q9P1W9); conditions: read-out: Percent Control
How it was run: as §1

Chain of human kinome (Homo sapiens, UniProt O00444) (O00444 whole entry): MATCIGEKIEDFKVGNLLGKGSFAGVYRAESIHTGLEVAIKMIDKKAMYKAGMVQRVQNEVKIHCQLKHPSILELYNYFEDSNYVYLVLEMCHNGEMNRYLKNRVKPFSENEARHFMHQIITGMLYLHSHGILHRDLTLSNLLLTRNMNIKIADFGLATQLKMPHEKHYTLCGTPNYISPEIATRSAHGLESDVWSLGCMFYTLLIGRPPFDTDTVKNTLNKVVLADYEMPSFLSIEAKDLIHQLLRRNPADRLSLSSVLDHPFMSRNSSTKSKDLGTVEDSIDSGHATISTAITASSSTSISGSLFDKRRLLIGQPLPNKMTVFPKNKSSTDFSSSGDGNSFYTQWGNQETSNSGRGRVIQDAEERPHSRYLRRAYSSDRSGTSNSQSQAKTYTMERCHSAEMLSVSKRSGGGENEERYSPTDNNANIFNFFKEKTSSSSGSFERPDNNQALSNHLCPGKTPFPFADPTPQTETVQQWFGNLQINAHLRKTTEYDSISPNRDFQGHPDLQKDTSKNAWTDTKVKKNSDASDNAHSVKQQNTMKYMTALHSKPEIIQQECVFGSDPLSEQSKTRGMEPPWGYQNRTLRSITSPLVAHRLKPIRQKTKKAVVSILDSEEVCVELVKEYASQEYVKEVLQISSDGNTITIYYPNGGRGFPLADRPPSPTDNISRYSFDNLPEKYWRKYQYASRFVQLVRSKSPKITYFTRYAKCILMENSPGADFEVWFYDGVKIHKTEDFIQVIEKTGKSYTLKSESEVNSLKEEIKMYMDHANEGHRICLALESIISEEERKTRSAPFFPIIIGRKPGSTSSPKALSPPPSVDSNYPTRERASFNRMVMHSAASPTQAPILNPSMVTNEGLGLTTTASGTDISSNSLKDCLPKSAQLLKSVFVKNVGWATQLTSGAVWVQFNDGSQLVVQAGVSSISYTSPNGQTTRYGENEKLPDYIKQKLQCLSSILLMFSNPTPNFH
Chain of human kinome (Homo sapiens, UniProt Q9HC98) (Q9HC98 whole entry): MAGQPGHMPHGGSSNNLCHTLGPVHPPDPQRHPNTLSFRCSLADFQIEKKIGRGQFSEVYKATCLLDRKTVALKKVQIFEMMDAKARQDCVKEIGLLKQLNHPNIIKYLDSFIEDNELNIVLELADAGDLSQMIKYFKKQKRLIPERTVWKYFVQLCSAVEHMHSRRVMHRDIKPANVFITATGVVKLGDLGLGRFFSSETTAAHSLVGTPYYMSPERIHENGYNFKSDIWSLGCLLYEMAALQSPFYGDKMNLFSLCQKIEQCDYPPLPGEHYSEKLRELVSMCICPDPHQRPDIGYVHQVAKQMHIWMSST
Chain of human kinome (Homo sapiens, UniProt P41743) (P41743 whole entry): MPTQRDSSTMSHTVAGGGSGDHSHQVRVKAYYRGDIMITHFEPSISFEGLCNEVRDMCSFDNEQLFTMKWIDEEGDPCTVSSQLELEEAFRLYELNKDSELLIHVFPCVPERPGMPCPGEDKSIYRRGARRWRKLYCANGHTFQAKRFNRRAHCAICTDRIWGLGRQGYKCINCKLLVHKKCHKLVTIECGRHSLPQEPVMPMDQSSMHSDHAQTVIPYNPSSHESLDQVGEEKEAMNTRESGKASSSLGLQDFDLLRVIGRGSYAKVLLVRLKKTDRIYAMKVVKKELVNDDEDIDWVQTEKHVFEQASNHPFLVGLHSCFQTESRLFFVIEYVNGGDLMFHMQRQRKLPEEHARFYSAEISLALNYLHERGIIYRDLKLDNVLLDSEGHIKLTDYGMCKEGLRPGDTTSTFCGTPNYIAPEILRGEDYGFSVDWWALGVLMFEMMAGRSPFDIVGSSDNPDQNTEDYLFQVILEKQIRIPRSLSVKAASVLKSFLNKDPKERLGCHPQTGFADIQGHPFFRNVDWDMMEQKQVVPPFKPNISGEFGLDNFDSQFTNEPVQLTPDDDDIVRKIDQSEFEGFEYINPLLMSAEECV
Chain of human kinome (Homo sapiens, UniProt Q9P1W9) (Q9P1W9 whole entry): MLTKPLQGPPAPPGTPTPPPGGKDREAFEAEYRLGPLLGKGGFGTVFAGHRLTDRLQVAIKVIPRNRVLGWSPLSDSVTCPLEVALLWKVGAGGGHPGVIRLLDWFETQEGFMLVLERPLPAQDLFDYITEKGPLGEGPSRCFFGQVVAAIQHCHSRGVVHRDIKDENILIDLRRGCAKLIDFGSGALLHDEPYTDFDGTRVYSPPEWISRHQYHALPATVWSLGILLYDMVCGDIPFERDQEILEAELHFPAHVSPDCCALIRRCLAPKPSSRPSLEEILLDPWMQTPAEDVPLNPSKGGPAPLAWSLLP
Chain of human kinome (Homo sapiens, UniProt P42336) (P42336 whole entry): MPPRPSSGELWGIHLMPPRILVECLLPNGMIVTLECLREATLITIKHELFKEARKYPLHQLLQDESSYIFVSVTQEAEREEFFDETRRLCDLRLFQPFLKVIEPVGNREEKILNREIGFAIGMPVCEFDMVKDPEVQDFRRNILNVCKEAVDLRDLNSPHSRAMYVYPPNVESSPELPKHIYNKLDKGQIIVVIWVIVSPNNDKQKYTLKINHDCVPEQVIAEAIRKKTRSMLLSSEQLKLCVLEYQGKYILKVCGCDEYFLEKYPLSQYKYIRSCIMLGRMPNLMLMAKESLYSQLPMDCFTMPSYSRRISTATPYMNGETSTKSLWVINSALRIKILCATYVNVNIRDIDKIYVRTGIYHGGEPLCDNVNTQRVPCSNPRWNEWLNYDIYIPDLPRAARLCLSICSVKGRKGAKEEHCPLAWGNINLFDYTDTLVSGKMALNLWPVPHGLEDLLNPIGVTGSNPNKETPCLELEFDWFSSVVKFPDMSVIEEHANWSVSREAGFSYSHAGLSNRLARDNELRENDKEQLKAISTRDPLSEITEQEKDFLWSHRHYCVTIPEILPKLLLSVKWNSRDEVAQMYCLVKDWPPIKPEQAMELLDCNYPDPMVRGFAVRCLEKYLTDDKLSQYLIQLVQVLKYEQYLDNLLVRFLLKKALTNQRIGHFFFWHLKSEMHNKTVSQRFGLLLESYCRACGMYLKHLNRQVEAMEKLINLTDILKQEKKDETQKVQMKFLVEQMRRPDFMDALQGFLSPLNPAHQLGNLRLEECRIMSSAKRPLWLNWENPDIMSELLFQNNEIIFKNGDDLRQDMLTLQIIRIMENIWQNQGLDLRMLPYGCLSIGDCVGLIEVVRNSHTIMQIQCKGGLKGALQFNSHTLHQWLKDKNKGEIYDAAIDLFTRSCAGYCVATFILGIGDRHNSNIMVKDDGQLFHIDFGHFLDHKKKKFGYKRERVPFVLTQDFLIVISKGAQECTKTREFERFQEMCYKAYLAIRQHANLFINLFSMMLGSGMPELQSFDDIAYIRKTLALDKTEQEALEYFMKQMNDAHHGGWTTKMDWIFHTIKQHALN
Chain of human kinome (Homo sapiens, UniProt P42336, M1043I) (P42336 whole entry M1043I): as the sequence (P42336 whole entry) above, with M1043I counted along it
Chain of human kinome (Homo sapiens, UniProt P09619) (P09619 33-1106): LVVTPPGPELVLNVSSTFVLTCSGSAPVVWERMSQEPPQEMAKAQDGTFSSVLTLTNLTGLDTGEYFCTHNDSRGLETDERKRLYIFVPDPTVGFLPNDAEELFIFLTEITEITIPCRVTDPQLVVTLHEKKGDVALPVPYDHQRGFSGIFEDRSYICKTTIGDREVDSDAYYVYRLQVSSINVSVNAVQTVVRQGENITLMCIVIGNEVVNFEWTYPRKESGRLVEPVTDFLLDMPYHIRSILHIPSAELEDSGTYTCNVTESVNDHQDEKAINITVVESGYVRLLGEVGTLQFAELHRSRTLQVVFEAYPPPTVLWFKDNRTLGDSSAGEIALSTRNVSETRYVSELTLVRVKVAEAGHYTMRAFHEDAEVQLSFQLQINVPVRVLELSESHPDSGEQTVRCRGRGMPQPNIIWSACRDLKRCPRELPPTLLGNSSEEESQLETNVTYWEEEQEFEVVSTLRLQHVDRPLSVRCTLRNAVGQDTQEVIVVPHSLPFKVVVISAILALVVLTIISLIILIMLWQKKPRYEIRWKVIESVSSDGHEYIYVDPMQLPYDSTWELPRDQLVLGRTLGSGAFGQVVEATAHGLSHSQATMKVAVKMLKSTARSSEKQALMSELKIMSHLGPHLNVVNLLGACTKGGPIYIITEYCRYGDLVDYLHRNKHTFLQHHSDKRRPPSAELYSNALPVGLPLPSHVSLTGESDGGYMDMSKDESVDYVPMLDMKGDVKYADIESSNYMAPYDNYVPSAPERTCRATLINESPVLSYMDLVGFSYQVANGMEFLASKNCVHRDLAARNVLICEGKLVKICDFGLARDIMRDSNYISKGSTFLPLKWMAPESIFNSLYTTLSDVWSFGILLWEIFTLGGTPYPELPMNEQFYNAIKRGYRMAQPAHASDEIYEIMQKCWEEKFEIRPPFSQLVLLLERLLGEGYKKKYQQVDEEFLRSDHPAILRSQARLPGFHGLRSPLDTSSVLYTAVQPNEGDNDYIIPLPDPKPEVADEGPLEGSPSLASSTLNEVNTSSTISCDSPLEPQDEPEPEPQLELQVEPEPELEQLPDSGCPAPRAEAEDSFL
Chain of human kinome (Homo sapiens, UniProt Q8TD08) (Q8TD08 whole entry): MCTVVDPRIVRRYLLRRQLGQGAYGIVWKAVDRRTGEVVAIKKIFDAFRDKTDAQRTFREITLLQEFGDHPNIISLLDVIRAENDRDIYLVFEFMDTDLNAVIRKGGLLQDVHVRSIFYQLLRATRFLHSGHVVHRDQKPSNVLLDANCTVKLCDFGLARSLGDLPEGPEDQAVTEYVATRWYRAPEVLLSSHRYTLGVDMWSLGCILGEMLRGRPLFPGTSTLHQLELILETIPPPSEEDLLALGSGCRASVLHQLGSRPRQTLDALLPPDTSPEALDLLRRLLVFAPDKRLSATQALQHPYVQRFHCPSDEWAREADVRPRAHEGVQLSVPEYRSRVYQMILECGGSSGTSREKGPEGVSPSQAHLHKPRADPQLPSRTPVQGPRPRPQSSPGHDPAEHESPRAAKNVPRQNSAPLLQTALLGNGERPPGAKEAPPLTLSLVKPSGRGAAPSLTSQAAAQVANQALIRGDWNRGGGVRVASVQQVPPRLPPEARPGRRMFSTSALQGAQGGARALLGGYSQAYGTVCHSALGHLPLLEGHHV

SMILES: COc1cc(F)ccc1-c1cc(Nc2cc(CS(C)(=N)=O)ccn2)ncc1F (centres unmarked) [VIP152]
- remaining binding at 0.1 µM ([1]; PLK4, 100 nM): 100%
- remaining binding at 1 µM ([1]; kinase PLK4 (Entrez PLK4), compound concentration 1000 nM): 79%
- remaining binding at 0.1 µM [2]: 100%
- remaining binding at 0.1 µM [3]: 100%
- remaining binding at 1 µM [4]: 90%
- remaining binding at 0.1 µM [5]: 88%
- remaining binding at 0.1 µM [6]: 100%
- remaining binding at 0.1 µM ([7]; PDGFRB, 100 nM): 100%
- remaining binding at 1 µM ([7]; kinase PDGFRB (Entrez PDGFRB), compound concentration 1000 nM): 71%
- remaining binding at 1 µM [8]: 89%
- remaining binding at 0.1 µM [9]: 100%
- remaining binding at 0.1 µM [10]: 100%
- remaining binding at 0.1 µM [11]: 100%
- remaining binding at 0.1 µM [12]: 100%
- remaining binding at 0.1 µM [13]: 88%
- remaining binding at 0.1 µM ([14]; PRKCI, 100 nM): 90%
- remaining binding at 1 µM ([14]; kinase PRKCI (Entrez PRKCI), compound concentration 1000 nM): 96%
- remaining binding at 0.1 µM ([15]; PIK3CA, 100 nM): 100%
- remaining binding at 1 µM ([15]; kinase PIK3CA (Entrez PIK3CA), compound concentration 1000 nM): 95%
- remaining binding at 0.1 µM ([16]; PIK3CA(M1043I), 100 nM): 100%
- remaining binding at 1 µM ([16]; kinase PIK3CA(M1043I) (Entrez PIK3CA), compound concentration 1000 nM): 84%
- remaining binding at 0.1 µM [17]: 89%
- remaining binding at 0.1 µM [18]: 69%
- remaining binding at 0.1 µM [19]: 100%
- remaining binding at 0.1 µM [20]: 66%
- remaining binding at 1 µM [21]: 98%
- remaining binding at 0.1 µM [22]: 99%
- remaining binding at 0.1 µM [23]: 100%
- remaining binding at 0.1 µM [24]: 94%
- remaining binding at 0.1 µM [25]: 90%
- remaining binding at 0.1 µM [26]: 99%
- remaining binding at 1 µM [27]: 80%
- remaining binding at 0.1 µM [28]: 81%
- remaining binding at 0.1 µM ([29]; NEK6, 100 nM): 100%
- remaining binding at 1 µM ([29]; kinase NEK6 (Entrez NEK6), compound concentration 1000 nM): 93%
- remaining binding at 1 µM [30]: 84%
- remaining binding at 0.1 µM ([31]; PIM2, 100 nM): 100%
- remaining binding at 1 µM ([31]; kinase PIM2 (Entrez PIM2), compound concentration 1000 nM): 100%
